The RepoRT retention time repository
Counter-ions that a name gives are not always drawn.

Test: HILIC, Merck SeQuant ZIC-HILIC, 25 °C, 0.25 mL/min; A: water + 16 mM ammonium formate; B: acetonitrile + 0.1% formic acid, pH 3; gradient (min/%B) 0/97 2/97 10/70 15/10 17/10 18/97 25/97
Conditions: stereoisomer not certain

| LC retention time | Structure (SMILES) |
| --- | --- |
| 13 min | C[n+]1cccc(C(=O)[O-])c1 [TRIGONELLINE] |
| 9.91 min | CCCCCCCCCCCCCCCC(O)C(N)CO (configuration not stated) [SPHINGANINE] |
| 1.84 min | Cc1ccc(O)c(O)c1 [4-METHYLCATECHOL] |
| 2.45 min | O=c1ccn(C2CC(O)C(CO)O2)c(=O)[nH]1 (configuration not stated) [DEOXYURIDINE] |
| 2.22 min | Cc1ncc(CO)c(C(=O)O)c1O [4-PYRIDOXATE] |
| 1.71 min | CC12CCC(=O)C=C1CCC1C2CCC2(C)C1CCC2(O)C(=O)CO (configuration not stated) [CORTEXOLONE] |
| 13.3 min | Nc1ncnc2c1ncn2C1CC(O)C(COP(=O)(O)O)O1 (configuration not stated) [DEOXYADENOSINE MONOPHOSPHATE] |
| 4.88 min | COc1cc(C(O)C(=O)O)ccc1O (configuration not stated) [3-METHOXY-4-HYDROXYMANDELATE] |
| 13 min | O=C(O)CC(O)(CC(=O)O)C(=O)O [CITRATE] |
| 1.71 min | CC(=O)Oc1cccc(O)c1 [RESORCINOL MONOACETATE] |
| 10.4 min | O=C(O)c1cc(=O)c2cccc(O)c2[nH]1 [XANTHURENATE] |
| 1.55 min | C=C(C)C1CC=C(C)C(=O)C1 [(R)-(-)-Carvone] |
| 12 min | Nc1c(O)cccc1C(=O)CC(N)C(=O)O (configuration not stated) [HYDROXYKYNURENINE] |
| 1.56 min | CC(=O)C1C(=O)C=C(C)OC1=O (configuration not stated) [Dehydroacetic acid] |
| 1.79 min | NC(=O)CCCCC1CCSS1 (configuration not stated) [LIPOAMIDE] |
| 12.8 min | Cn1cnc2c(ncn2C2OC(CO)C(O)C2O)c1=N (configuration not stated) [1-METHYLADENOSINE] |
| 12.5 min | NCCc1ccc(O)c(O)c1 [DOPAMINE] |
| 2.17 min | Cc1cn(C2CC(O)C(CO)O2)c(=O)[nH]c1=O (configuration not stated) [THYMIDINE] |
| 2.18 min | CSCCC(NC(C)=O)C(=O)O (configuration not stated) [N-ACETYLMETHIONINE] |
| 14.4 min | Cc1cn(C2CC(O)C(COP(=O)(O)OP(=O)(O)OC3OC(CO)C(O)C(O)C3O)O2)c(=O)[nH]c1=O [DTDP-D-GLUCOSE] |
| 13 min | OCC1OC(O)CC1O (configuration not stated) |
| 2.13 min | CC(CCC(=O)O)CC(=O)O (configuration not stated) [3-Methyladipic acid] |

| LC retention time | Structure (SMILES) |
| --- | --- |
| 2.13 min | O=C(O)c1ccc2ccccc2n1 [2-QUINOLINECARBOXYLATE] |
| 14.5 min | O=C1OC(CO)C(O)C(O)C1O (configuration not stated) [GLUCONOLACTONE] |
| 15.8 min | N[C@@H](Cc1cnc[nH]1)C(=O)O [L-Histidine] |
| 1.99 min | CSCCC(O)C(=O)O (configuration not stated) [2-HYDROXY-4-(METHYLTHIO)BUTANOATE] |
| 10.5 min | NC(Cc1cc(I)c(O)c(I)c1)C(=O)O [3-5-DIIODO-L-TYROSINE] |
| 15 min | NC(CCSSCCC(N)C(=O)O)C(=O)O (configuration not stated) [HOMOCYSTINE] |
| 15.4 min | NC(CSSCC(N)C(=O)O)C(=O)O (configuration not stated) [CYSTINE] |
| 1.85 min | CC(CCC(=O)O)C1CCC2C3C(O)CC4CC(O)CCC4(C)C3CCC12C (configuration not stated) [CHENODEOXYCHOLATE] |
| 13.5 min | NCCCC(=O)O [GAMMA-AMINOBUTYRATE] |
| 2.18 min | CC(CC(=O)O)C(=O)O (configuration not stated) [Methyl-succinic acid] |
| 14.5 min | Nc1ccn(C2CC(O)C(COP(=O)(O)O)O2)c(=O)n1 (configuration not stated) [DEOXYCYTIDINE MONOPHOSPHATE] |
| 13.4 min | CC(CN)C(=O)O (configuration not stated) [AMINOISOBUTANOATE] |
| 13.9 min | O=c1ccn(C2OC(COP(=O)(O)O)C(O)C2O)c(=O)[nH]1 (configuration not stated) [URIDINE MONOPHOSPHATE] |
| 12 min | Nc1ccnc(=O)[nH]1 [CYTOSINE] |
| 10.5 min | O=C1OC(C(O)CO)C(O)=C1O (configuration not stated) [ASCORBATE] |
| 1.95 min | CC(=O)NC(Cc1ccccc1)C(=O)O (configuration not stated) [N-ACETYLPHENYLALANINE] |
| 1.8 min | CC12CCC(=O)C=C1CCC1C2C(=O)CC2(C)C1CCC2(O)C(=O)CO (configuration not stated) [CORTISONE] |
| 1.84 min | O=C(O)CCCCCCCC(=O)O [AZELATE] |
| 2.14 min | O=C(O)c1cc(O)ccc1O [2-5-DIHYDROXYBENZOATE] |
| 13.6 min | Nc1ncnc2c1ncn2C1OC(COP(=O)(O)O)C(O)C1O (configuration not stated) [ADENOSINE-MONOPHOSPHATE] |
| 15.5 min | NC1C(O)OC(COS(=O)(=O)O)C(O)C1O (configuration not stated) [GLUCOSAMINE 6-SULFATE] |
| 8.79 min | OCC(O)c1ccc(O)c(O)c1 (configuration not stated) [3-4-DIHYDROXYPHENYLGLYCOL] |

| LC retention time | Structure (SMILES) |
| --- | --- |
| 15.4 min | Nc1nc2c(ncn2C2OC(COP(=O)(O)OP(=O)(O)O)C(O)C2O)c(=O)[nH]1 (configuration not stated) [GUANOSINE DIPHOSPHATE] |
| 15 min | O=c1[nH]cnc2c1ncn2C1OC(COP(=O)([O-])OP(=O)([O-])O)C(O)C1O (configuration not stated) [INOSINE 5'-DIPHOSPHATE] |
| 14.7 min | NC(=O)c1ccc[n+](C2OC(COP(=O)([O-])O)C(O)C2O)c1 (configuration not stated) [NICOTINAMIDE MONONUCLEOTIDE] |
| 1.58 min | C=C(C)C1CCC2(C(=O)O)CCC3(C)C(CCC4C5(C)CCC(O)C(C)(C)C5CCC43C)C12 (configuration not stated) [Betulinic acid] |
| 1.74 min | NC(=O)c1ccccc1O [SALICYLAMIDE] |
| 13.6 min | CNCC(=O)O [SARCOSINE] |
| 14.7 min | Nc1nc2c(ncn2C2OC(COP(=O)(O)O)C(O)C2O)c(=O)[nH]1 (configuration not stated) [GUANOSINE MONOPHOSPHATE] |
| 1.61 min | CC(=O)C1(O)CCC2C3CCC4=CC(=O)CCC4(C)C3CCC21C (configuration not stated) [17a-Hydroxyprogesterone] |
| 1.49 min | CCCCCCCCC=CCCCCCCCC(=O)OCC(CO)OC(=O)CCCCCCCC=CCCCCCCCC (configuration not stated) [1-2-dioleoyl-sn-glycerol] |
| 15.3 min | O=C(O)C1OC(OP(=O)(O)OP(=O)(O)OCC2OC(n3ccc(=O)[nH]c3=O)C(O)C2O)C(O)C(O)C1O (configuration not stated) [URIDINE DIPHOSPHATE GLUCURONIC ACID] |
| 12.9 min | Cn1c[n+](C2OC(CO)C(O)C2O)c2nc(N)[nH]c(=O)c21 (configuration not stated) [7-Methylguanosine] |
| 2.14 min | O=C(O)CCCCCC(=O)O [pimelic acid] |
| 2.81 min | O=C(O)c1cccnc1 [Nicotinic acid] |
| 11.1 min | N[C@@H](Cc1ccccc1)C(=O)O [L-Phenylalanine] |
| 8.46 min | O=C(O)c1cc(O)cc(O)c1 [3-5-Dihydroxybenzoic acid] |
| 9.35 min | CCCCCCCCCCCCCCCC(=O)OCC(COP(=O)(O)OCCN)OC(=O)CCCCCCCCCCCCCCC (configuration not stated) [DIPALMITOYL-PHOSPHOETHANOLAMINE] |
| 2.53 min | NC(=O)C=CC(=O)O [MALEAMATE] |
| 1.82 min | OCCc1c[nH]c2ccccc12 [INDOLE-3-ETHANOL] |
| 9.7 min | O=C(O)c1cc[n+]([O-])cc1 [Isonicotinic acid N-oxide] |
| 13.3 min | N[C@H](C(=O)O)c1ccc(O)cc1 [4-HYDROXY-L-PHENYLGLYCINE] |
| 2.19 min | CC(C)C(C(=O)O)C(O)C(=O)O (configuration not stated) [3-isopropylmalic acid] |
| 1.71 min | COC(=O)CCCCC(=O)O [mono-Methyl adipate] |

| LC retention time | Structure (SMILES) |
| --- | --- |
| 8.64 min | Nc1ncnc2c1ncn2C1OC(CO)C(O)C1O (configuration not stated) [ADENOSINE] |
| 10.3 min | CCCCCCCCCCCCCC(=O)OC(CO)COP(=O)(O)OCCN (configuration not stated) [14-0_LysoPE] |
| 2.12 min | Nc1ccc(C(=O)O)cc1 [4-AMINOBENZOATE] |
| 14.4 min | O=c1[nH]c(=O)c2ncn(C3OC(COP(=O)(O)O)C(O)C3O)c2[nH]1 (configuration not stated) [XANTHOSINE-MONOPHOSPHATE] |
| 5.68 min | CC(=O)C(=O)O [pyruvic acid] |
| 2.13 min | O=C1CCNC(=O)N1 [DIHYDROURACIL] |
| 1.75 min | O=Cc1cccc(O)c1 [3-HYDROXYBENZALDEHYDE] |
| 13.1 min | OCCNCCO [DIETHANOLAMINE] |
| 9.58 min | O=C(O)c1cc(=O)c2ccccc2[nH]1 [Kynurenic acid] |
| 13.8 min | NC(CCCC(=O)O)C(=O)O (configuration not stated) [AMINOADIPATE] |
| 1.64 min | CCCCCCCCCCCCCC(=O)OCC(O)CO (configuration not stated) [GLYCEROL-MYRISTATE] |
| 8.36 min | CC(=O)NC(CCC(=O)O)C(=O)O (configuration not stated) [N-ACETYLGLUTAMATE] |
| 9.22 min | CCCCCCCCCCCCCCCC(=O)OCC(O)COP(=O)(O)O (configuration not stated) [16:0_LysoPA] |
| 2.33 min | Cc1cc(=O)oc(C)c1C(=O)O [Isodehydracetic acid] |
| 16.1 min | NCCCC[C@H](N)C(=O)O [L-Lysine] |
| 2.1 min | CCC(O)C(=O)[O-] (configuration not stated) [2-HYDROXYBUTYRATE] |
| 8.88 min | O=C(O)c1cccnc1C(=O)O [QUINOLINATE] |
| 4.96 min | CC(O)(CC(=O)O)CC(=O)O [3-HYDROXYMETHYLGLUTARATE] |
| 14.4 min | NC(N)=NC(CC(=O)O)C(=O)O (configuration not stated) [GUANIDINOSUCCINATE] |
| 13.3 min | O=C(O)C(=O)CO [HYDROXYPYRUVATE] |
| 8.66 min | O=C(O)C=Cc1cnc[nH]1 [UROCANATE] |

| Structure (SMILES) | LC retention time |
| --- | --- |
| O=C(O)CCCCCCCCCO [10-HYDROXYDECANOATE] | 1.75 min |
| NCCc1c[nH]c2ccccc12 [TRYPTAMINE] | 10.5 min |
| Cn1cncc1CCN [3-METHYLHISTAMINE] | 17.2 min |
| CCCCCCCCCCCCCCC=COCC(O)COP(=O)([O-])OCC[N+](C)(C)C (configuration not stated) [C16_PlasmLPC] | 11.1 min |
| NCCc1cc(O)c(O)cc1O [6-HYDROXYDOPAMINE] | 12.6 min |
| NCCP(=O)(O)O [(2-AMINOETHYL)PHOSPHONATE] | 15 min |
| NCCCNCCCN [NORSPERMIDINE] | 19.4 min |
| CN1C2CC(OC(=O)C(CO)c3ccccc3)CC1C1OC12 (single isomer, unassigned; (-)) [(-)-Scopolamine hydrochloride] | 9.99 min |
| CN=C(N)N [METHYLGUANIDINE] | 12 min |
| CCCCC(CC)COC(=O)c1ccccc1C(=O)OCC(CC)CCCC (configuration not stated) [BIS(2-ETHYLHEXYL)PHTHALATE] | 1.48 min |
